# Measured values: paper PMC6627331, “Identification of Small Molecule Inhibitors of Staphylococcus aureus RnpA” (Antibiotics, 2019)
# Legend:
# [1] = tested on: S. aureus strain UAMS-1, USA300 or BAA-1708; experiment: Selection of spontaneous resistant cells in liquid culture; format: cell-based, Staphylococcus aureus; conditions: 24 h incubation in liquid culture, 2× MIC
# Galleria mellonella = Galleria mellonella single tolerated dose (uninfected worms); format: in vivo; conditions: single dose 100 mg·kg^−1, 16 h
# Procedure: An overnight culture of S. aureus strain UAMS-1 was used to inoculate (1:100 dilution) 25 mL of fresh MH medium and growth at 37 °C on a rotary shaker at 225 rpm to exponential phase (~1 × 10^8 CFU mL^−1). Cultures were pelleted by centrifugation, washed with phosphate buffered saline (PBS), and re-suspended at ~1 × 10^7 CFU·mL^−1 in fresh PBS. G. mellonella larvae weighing 150–250 mg were inoculated with 5 µL of S. aureus into the last left proleg using a 10 µL Hamilton syringe. About 1 h after inoculation, one group of worms was treated with 2 µL DMSO as infected negative control; one group was treated with 2 µL JC2 compound at 100 mg/kg dose; another group was treated with 2 µL vancomycin at 100 mg/kg dose as standard-of-care comparison. Treatments were administered in the same manner as infection, except that each injection was in the next left proleg moving towards the head of the worm. […] In addition to the mock or compound treatment of infected larvae, a group of non-infected worm injected with DMSO or corresponding compounds were used to monitor the impact of physical trauma as well as observe toxicity associated with compound treatment.
# HepG2 cells = experiment: MTT human cell cytotoxicity testing; format: cell-based; conditions: SAR figures; 4× MIC exposure for 24 h
# Procedure: Human HepG2 hepatocytes were seeded in individual wells of a 96-well cell-culture treated microtiter plate at a concentration of 1 × 10^5 cells per well and incubated in Dulbecco’s Modified Eagle Medium (DMEM) supplemented with 10% fetal bovine serum at 37 °C with 5% carbon dioxide overnight. Cells were then treated with DMSO (negative control) or the indicated agent for 24 h. MTT Cell Proliferation Assay Kits were used to assess viability according to the manufacturer’s recommendations (American Type Culture Collection; Manassas, VA, USA).
# [2] = tested on: S. aureus RN4220 pML100::rnpA-KD; experiment: Cellular RnpA depletion hypersusceptibility growth curve; format: cell-based, Staphylococcus aureus; conditions: […] MIC JC2 or 0.5× MIC RNPA2000
# Procedure: 100 μL of each culture was transferred to a 96 well flat bottom plate in duplicate and growth monitored by OD600 reading every 30 min over 8 h at 37 °C. Hypersusceptibility growth curves were averaged from two biological replicates in technical duplicate.
smiles,measurement,setting,value
CC1CCCCN1C(=O)Nc1cc(Cl)cc(Cl)c1 (stereo not shown) [JC2],selection of spontaneous resistant cells,[1],unable to select for spontaneous JC2 resistant
same,mortality rate of uninfected worms,Galleria mellonella,did not display any treatment-associated lethality
same,MTT = % HepG2 cell survival,HepG2 cells,87%
same,growth of RnpA-depleted cells (RnpA-KD) versus vector cells,[2],displayed a growth defect
